Data published in patent US11384142B2, “Combination therapy for the treatment of ovarian cancer” (Hoffmann-La Roche Inc., priority 2012, dated 2022).

Test system: platinum-resistant ovarian cancer (epithelial ovarian, fallopian tube or primary peritoneal cancer)
Assay: AURELIA Phase III trial, efficacy (PFS by RECIST, ORR)
Type: in vivo, human
Conditions: for PFS Events, % / PFS Median, mo / ORR, %: by chemotherapy cohort; for ORR, %: overall response rate (RECIST and/or CA-125)
Description: The AURELIA trial evaluated the efficacy and safety of bevacizumab in combination with chemotherapy for platinum-resistant ovarian cancer. This study was designed as a prospective, open-label, randomised, two-arm Phase III evaluation of bevacizumab plus chemotherapy versus chemotherapy alone. To be eligible, patients must have ovarian cancer that progressed within 6 months of previous platinum-based therapy. Paclitaxel, topotecan or pegylated liposomal doxorubicin (PLD) was selected as chemotherapeutic combination partners since they are commonly used for treatment of platinum-resistant disease. By adding bevacizumab to chemotherapy, the AURELIA trial aimed to improve PFS for this group of patients who have limited therapeutic options and face a particularly poor prognosis. The primary objective was to compare progression-free survival (PFS) of patients randomised to selected chemotherapy only or to selected chemotherapy plus bevacizumab.
Study Design—This trial consisted of two (2) treatment arms: chemotherapy-alone (Arm 1) and chemotherapy plus bevacizumab (Arm 2). Patients were randomly assigned (1:1) to either arm, see FIG. 1.
Eligible patients received one of the following chemotherapies on a 4-week cycle at the discretion of the investigator: • a. Paclitaxel 80 mg/m^2 as a 1-hour i.v. infusion on days 1, 8, 15 and 22 q4w. • b. Topotecan 4 mg/m^2 as a 30 minute i.v. infusion on days 1, 8 and 15 q4w. Alternatively, a 1.25 mg/m^2 dose can be administered over 30 minutes on days 1-5 every three weeks. • c. Pegylated liposomal doxorubicin 40 mg/m^2 as a 1 mg/min i.v. infusion on day 1 only, q4w. After cycle 1, the drug can be delivered as a 1 h infusion.
The chemotherapy was selected from one of those described in Arm 1 at the discretion of the investigator. The chosen chemotherapy was initially combined with bevacizumab 10 mg/kg i.v. every two weeks (or 15 mg/kg every three weeks if used in combination with topotecan 1.25 mg/m^2 on days 1-5 of a every three weeks schedule). The initial bevacizumab infusion was over 90 minutes, with subsequent infusions over 60 minutes and then 30 minutes, as tolerated. Bevacizumab was administered before the chemotherapy at the first cycle and then administered prior or after the chemotherapy at subsequent cycles. In case chemotherapy was completed before diagnosis of progressive disease, patients continued to receive bevacizumab as either: (a) 10 mg/kg i.v. every two weeks; or (b) 15 mg/kg every three weeks if topotecan was selected and administered at a dose of 1.25 mg/m^2 on days 1-5 of a every three weeks schedule. After disease progression, patients received standard of care treatment.
Analyses of PFS and ORR was based on tumour assessments (based on RECIST criteria) using cross sectional imaging (preferably by CT or MRI in case of contrast allergy) of the pelvis and abdomen and (by X-ray or preferably by CT-scan) of the chest. The same assessment technique was used throughout the study to evaluate a particular lesion.
Tumour assessments were performed at baseline then every 8 weeks (every 9 weeks for patients treated with 1.25 mg/m^2 topotecan on days 1-5 of a every three weeks cycle). Responses were confirmed by a second CT scan performed not earlier than 4 weeks after the criteria for response were first met.
Progressive serial elevation of serum CA-125 were used to determine CA-125 response and biological progression-free interval (PFIbio). Overall survival was measured from the date of randomisation to the date of death from any cause.
Eligible patients had ovarian cancer (measurable by RECIST 1.0 or assessable) that had progressed ≤6 mo after ≥4 cycles of platinum-based therapy. Patients with refractory ovarian cancer, history of bowel obstruction or >2 prior anticancer regimens were ineligible. […]

Molecule: CC(=O)O[C@H]1C(=O)[C@@]2(C)[C@H]([C@H](OC(=O)c3ccccc3)[C@]3(O)C[C@H](OC(=O)[C@H](O)[C@@H](NC(=O)c4ccccc4)c4ccccc4)C(C)=C1C3(C)C)[C@]1(OC(C)=O)CO[C@@H]1C[C@@H]2O [PAC CT, paclitaxel]
- PFS Events, %: 89%
- PFS Median, mo: 3.9 mo
- ORR, %: 28.8%

Molecule: CC[C@@]1(O)C(=O)OCc2c1cc1n(c2=O)Cc2cc3c(CN(C)C)c(O)ccc3nc2-1 [TOP CT, topotecan]
- PFS Events, %: 89%
- PFS Median, mo: 2.1 mo
- ORR, %: 3.3%

B1: bevacizumab (antibody, V domains shown)
VH: EVQLVESGGGLVQPGGSLRLSCAASGYTFTNYGMNWVRQAPGKGLEWVGWINTYTGEPTYAADFKRRFTFSLDTSKSTAYLQMNSLRAEDTAVYYCAKYPHYYGSSHWYFDVWGQGTLVTVSS
VL: DIQMTQSPSSLSASVGDRVTITCSASQDISNYLNWYQQKPGKAPKVLIYFTSSLHSGVPSRFSGSGSGTDFTLTISSLQPEDFATYYCQQYSTVPWTFGQGTKVEIKR
modifications: amino acid sequence of humanized antibody variable heavy chain; amino acid sequence of humanized antibody variable light chain
notes: recombinant humanized anti-VEGF monoclonal antibody
- overall response rate (ORR) by RECIST, CA-125 or both (FIG. 3) (bevacizumab added to chemotherapy vs chemotherapy alone): increased the overall response rate (ORR)
